Experimental data reported in patent publication US20250059139A1, “COMPOUNDS FOR TREATMENT OF CANCER” (THE JOHNS HOPKINS UNIVERSITY, priority 2021, published 2025).
Like-named read-outs stand apart in the source and are kept apart here.

Columns and labels:
thymus = assay: AHR agonist induced thymus regression in FVB male mice; assay type: in vivo, mouse; conditions: mouse, in vivo, po, 30 mg/kg/day
Description: To evaluate AHR agonist induced thymus regression, groups of five 4-week old FVB male mice from Jackson Laboratory were treated with either vehicle, Linomide, TasQ, or its analogs daily by orally gavage for 2 weeks and then the thymus removed and weighted.
Oral Drug treatment. TasQ at the indicated dose was initially dissolved with equal molar 1 N sodium hydroxide. This solution was diluted with sterile water and the mixture stirred for 1 hr. The pH was then adjusted with 1 N HCl to 8.9 and 200 μL given daily via oral gavage.
This means that in the clinical setting, dose-escalation above 1 mg/d of TasQ as needed to reach this >2 μM blood level for optimal anti-cancer efficacy will also enhance unwanted off-target AHR induction. Therefore, a medicinal chemical approach was undertaken to identify third generation quinoline-3-carboxamide analogs with increased HDAC4 inhibition, but with reduced AHR agonism. The approach taken is based upon the earlier SPR analysis documenting that TasQ linked to the surface chip via its aniline-N is a potent binder of HDAC4. Thus, a series of quinoline-3-carboxamide analogs were synthesized focusing upon adduct changes at the aniline-N. These analogs were synthesized as described in Example 1, and were initially screened for their AHR agonist activity using the in vitro human cell-based ARE-driven luciferase reporter gene assay (Table 3).

fl-HDAC4 (wild-type) = target: T1, fl-HDAC4 (wild-type) (Homo sapiens, UniProt P56524); assay: SPR binding analysis TasQ / fl-HDAC4
T1 construct: Full-length (fl) [A.A. 1-1082] recombinant human histone deacetylase 4 (rhHDAC4) protein; FLAG (N); GST (given as 'with or without'); made in house; host or cells: HEK293-T
Description: Surface Plasmon Resonance (SPR) Binding Analysis. SPR analysis was performed on the Biacore 3000™ system using CM5 sensor chips, certified buffers (HBS-P—10 mM HEPES, 0.15 M NaCl, pH 7.4, containing 0.005% v/v Surfactant P; HBS-EP-HBS-P with 3 mM EDTA) and reagents for immobilization and surface regeneration from Biacore, GE Healthcare, Uppsala Sweden. Evaluation of sensorgrams was performed using the BIA-evaluation Software version 4.1 and GraphPad Prism 4. Buffer of protein reagents were changed to HBS-P on Zeba spin desalting columns (Thermo Scientific) prior to being used in SPR analysis (Isaacs 2013).
A. Binding of wild-type and mutant forms of HDAC4 to immobilized TasQ. TasQ (ABR-215050; mol wt 406.4) was dissolved as a 40 mM solution in water with 1.5 equivalents of NaOH. TasQ with an amino-linker [i.e. —(CH2)2O(CH2)2—NH2](ABR-225180) in amide nitrogen position was used for amine coupling on to a Biacore CM5 sensor chip. A 1 mg/mL solution of ABR-225180 in HBS-P buffer was prepared and immobilized on a CM5 chip by injection at a flow rate of 5 or 10 μL/min until a stable response level was reached. Interaction of various HDAC4 forms with immobilized TasQ was studied by injection over this surface in HBS-P buffer containing 10 or 20 μM ZnCl2. Bound HDAC4 was removed by a pulse of 3 mM EDTA in HBS-P or 0.5 to 6.25 mM NaOH in water. In a second series of experiments, the ability of TasQ in solution to displace this binding was studied by pre-incubation of HDAC4 with TasQ as competitor.
B. Binding of TasQ to immobilized HDAC4 and NCoR1. Different variants of HDAC4 (full-length wild-type and mutant forms and the truncated protein) and full-length NCoR1 were immobilized on a CM5 chip using random amine coupling. Briefly, proteins were dissolved in 10 mM sodium acetate buffer at pH 5.0 or 5.5 and immobilized to the aimed level using the standard protocol from GE Healthcare. Serially diluted TasQ in HBS-P buffer with 10 or 20 μM Zn was injected (for 2 or 3 min at a flow rate of 30 μl/min) either directly or after a 1st injection of 1 mM DTT to reduce cysteines in the zinc conformation site in HDAC4. Regeneration was made with a short pulse of HBS-EP.
To evaluate the conformational requirements for TasQ's binding to HDAC4, surface plasmon resonance (SPR) analysis was utilized. To maximize conformational flexibility, TasQ is immobilized onto the surface of a Biacore CM5 sensor chip via an amino-linker [i.e. —(CH2)2—O—(CH2)2—NH2] in its amide nitrogen position.
By comparison, Linomide even at >30 μM in solution binds only 10-15% of the immobilized fl-HDAC4 protein despite the presence of Zn^+2 (FIG. 14). […] The fact that the KD for binding of soluble TasQ to immobilized fl-HDAC4 is higher than the KD for binding of soluble fl-HDAC4 with immobilized TasQ is predictable. This is because the conformational dynamics of fl-HDAC4 protein immobilized on the chip are more restrictive due to the multiple random amine coupling than the conformational dynamics of TasQ immobilized via a single amino-linker.
To address this possibility, a competitive binding assay was developed based upon the ability of TasQ in solution to compete with immobilized TasQ on the SPR-chip for binding to fl-HDAC4.

T1 sequence (P56524 whole entry): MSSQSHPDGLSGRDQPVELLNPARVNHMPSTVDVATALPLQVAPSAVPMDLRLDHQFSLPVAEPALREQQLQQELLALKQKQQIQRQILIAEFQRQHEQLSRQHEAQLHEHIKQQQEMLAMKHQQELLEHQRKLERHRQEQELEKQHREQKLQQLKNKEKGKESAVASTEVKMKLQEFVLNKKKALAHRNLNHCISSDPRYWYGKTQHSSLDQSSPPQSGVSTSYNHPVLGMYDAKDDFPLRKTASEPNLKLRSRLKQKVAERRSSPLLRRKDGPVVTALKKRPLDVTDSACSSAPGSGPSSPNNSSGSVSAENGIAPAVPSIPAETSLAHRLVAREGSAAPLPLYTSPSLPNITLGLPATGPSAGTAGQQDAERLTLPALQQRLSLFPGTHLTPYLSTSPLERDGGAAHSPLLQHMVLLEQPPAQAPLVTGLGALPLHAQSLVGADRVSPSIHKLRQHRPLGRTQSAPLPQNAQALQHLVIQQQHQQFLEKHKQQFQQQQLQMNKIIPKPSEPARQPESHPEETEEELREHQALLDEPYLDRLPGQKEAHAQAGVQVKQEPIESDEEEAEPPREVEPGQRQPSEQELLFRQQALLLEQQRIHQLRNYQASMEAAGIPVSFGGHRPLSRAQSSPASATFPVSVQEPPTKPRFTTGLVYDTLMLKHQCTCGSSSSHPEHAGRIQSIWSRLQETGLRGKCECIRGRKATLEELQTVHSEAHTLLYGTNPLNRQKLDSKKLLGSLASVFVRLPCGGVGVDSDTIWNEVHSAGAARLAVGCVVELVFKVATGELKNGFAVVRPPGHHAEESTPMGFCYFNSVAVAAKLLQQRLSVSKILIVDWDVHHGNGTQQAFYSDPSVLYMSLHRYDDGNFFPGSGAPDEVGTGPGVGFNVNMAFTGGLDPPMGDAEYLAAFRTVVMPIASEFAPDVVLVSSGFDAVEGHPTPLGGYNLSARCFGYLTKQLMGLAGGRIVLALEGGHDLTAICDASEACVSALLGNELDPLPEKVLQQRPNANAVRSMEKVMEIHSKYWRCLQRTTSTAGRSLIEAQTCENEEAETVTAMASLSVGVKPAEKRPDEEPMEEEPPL

## COc1cccc2c1c(O)c(C(=O)N(c1ccc(C(F)(F)F)cc1)C1CCCCC1)c(=O)n2C [ESATA-20]
thymus
  induction of thymus regression: lack of induction

## COc1cccc2c1c(O)c(C(=O)N(C)c1ccc(C(F)(F)F)cc1)c(=O)n2C [TasQ, Tasquinimod]
fl-HDAC4 (wild-type); competitive SPR assay, read-out: IC50 of TasQ in solution to reduce binding of fl-wild-type HDAC4 to immobilized TasQ
  IC50: 1300 nM
fl-HDAC4 (wild-type); compound in solution, immobilized fl-HDAC4, n=4, read-out: KD
  Kd: 4900 nM
fl-HDAC4 (wild-type); fl-HDAC4 in solution, immobilized amine-linked TasQ, Zn2+, read-out: KD calculated from the on- and off-rates
  Kd: ~20 nM
fl-HDAC4 (wild-type); fl-HDAC4 in solution, immobilized amine-linked TasQ, Zn2+, read-out: KD from the steady state dose-response curve
  Kd: ~130 nM
